SMILES strings stand for the structures.

Results on five compounds are retold here after US6756045B1, “Topically applied idebenone-containing agent with protective and regenerative effect” (priority 1999, dated 2004).

Data set [1] concerns macrophage LDL oxidation systems. The data set can be described thus: macrophage LDL oxidation system, lipid hydroperoxides by HPLC chemiluminescence. The format is cell-based. To be noted: for antioxidative effect in combination with tocopherol: combined with tocopherol, in the course of time, after 24 hours. The text has this: In separate pre-tests, idebenone was used in the macrophage LDL oxidation systems as anti-oxidant by way of comparison to alpha-tocopherol, ascorbic acid, coenzyme Q-10 and glutathione. This system is suitable for the simulation of cell-promoted oxidation of lipids induced by lipoxygenase, such as for example occurs due to UV radiation. To determine the antioxidative effect of the individual substances, the amount of primary degradation products of lipid peroxidation, the lipid hydroperoxides, occurring in the course of time after 8 or 24 hours was determined by means of an HPLC chemiluminescence method (E. Wieland et al., Fresenius J. Anal. Chem., 343, 62-63 (1992)). […] The values given in the following tables relate to nmoles of measured lipid hydroperoxides per mg of LDL protein.

The next data set deals with tissue. To be noted: in the tissue under pro-oxidative conditions; cited from earlier work.
For data set [2] the following is noted: oral administration; cited from earlier work.
[3] abbreviates: oxidation system A (Mk + LDL), 10 μmoles/litre antioxidant, 8 hours.
Setting [4] is: oxidation system A (Mk + LDL), 10 μmoles/litre antioxidant, 24 hours.
Setting [5] is: oxidation system B (Mk + LDL + 100 μmoles/liter α-tocopherol), 10 μmoles/litre further antioxidant, 8 hours.
The mark [6] stands for this setting: oxidation system B (Mk + LDL + 100 μmoles/liter α-tocopherol), 10 μmoles/litre further antioxidant, 24 hours.
Setting [7] is: oxidation system A (Mk + LDL), 50 μmoles/litre antioxidant, 8 hours.
[8] abbreviates: oxidation system A (Mk + LDL), 50 μmoles/litre antioxidant, 24 hours.
The mark [9] stands for this setting: oxidation system B (Mk + LDL + 100 μmoles/liter α-tocopherol), 50 μmoles/litre further antioxidant, 8 hours.
The mark [10] stands for this setting: oxidation system B (Mk + LDL + 100 μmoles/liter α-tocopherol), 50 μmoles/litre further antioxidant, 24 hours.

With `Cc1c(C)c2c(c(C)c1O)CC[C@@](C)(CCC[C@H](C)CCC[C@H](C)CCCC(C)C)O2` [α-tocopherol, alpha-tocopherol], the lipid hydroperoxides in data set [1] (oxidation system A (Mk + LDL), 100 μmoles/litre antioxidant, 8 hours) was 32.8 nmoles per mg of LDL protein; in data set [1] (oxidation system A (Mk + LDL), 100 μmoles/litre antioxidant, 24 hours) it was 198.0 nmoles per mg of LDL protein.

As for `COC1=C(OC)C(=O)C(CCCCCCCCCCO)=C(C)C1=O` [idebenone, 6-(10-hydroxydecyl)-2,3-dimethoxy-5-methyl-1,4-benzoquinone], in data set [1], the “antioxidative effect in combination with tocopherol” value is recorded as “reliably intercept the pro-oxidative effect of tocopherol oxidation products”. Besides, the “antioxidative effect compared to ascorbic acid, alpha-tocopherol and glutathione” value in data set [1] (idebenone 10 μmoles/liter vs ascorbic acid 50, alpha-tocopherol 100, glutathione 50 μmoles/liter) is reported as “clearly stronger antioxidative effect”. Also, the lipid hydroperoxides in data set [1] (setting [3]) is recorded as 0 nmoles per mg of LDL protein; in data set [1] (setting [4]), 0 nmoles per mg of LDL protein; in data set [1] (setting [5]) it was 1.9 nmoles per mg of LDL protein; in data set [1] (setting [6]), 2.6 nmoles per mg of LDL protein. Further, the “protection against loss of alpha-tocopherol and coenzyme Q-10” value with tissue was “protection against the loss of alpha-tocopherol and coenzyme Q-10”. For the same compound, the toxic effects result in data set [2] was “no toxic effects”.

`O=C1O[C@H]([C@@H](O)CO)C(O)=C1O` [ascorbic acid]: the “antioxidative effect in combination with tocopherol” value in data set [1] is on record as “significantly lower antioxidative effect”. The lipid hydroperoxides is recorded as 0 nmoles per mg of LDL protein in data set [1] (setting [7]), 1.7 nmoles per mg of LDL protein in data set [1] (setting [8]), 1.7 nmoles per mg of LDL protein in data set [1] (setting [9]) and 25.3 nmoles per mg of LDL protein in data set [1] (setting [10]).

With `N[C@@H](CCC(=O)N[C@@H](CS)C(=O)NCC(=O)O)C(=O)O` [glutathione], the lipid hydroperoxides in data set [1] (setting [7]) is 51.7 nmoles per mg of LDL protein; in data set [1] (setting [8]), 119.0 nmoles per mg of LDL protein; in data set [1] (setting [9]), 23.3 nmoles per mg of LDL protein; in data set [1] (setting [10]), 129.8 nmoles per mg of LDL protein.

For the compound `COC1=C(OC)C(=O)C(C/C=C(\C)CC/C=C(\C)CC/C=C(\C)CC/C=C(\C)CC/C=C(\C)CC/C=C(\C)CC/C=C(\C)CC/C=C(\C)CC/C=C(\C)CCC=C(C)C)=C(C)C1=O` [coenzyme Q-10], the lipid hydroperoxides in data set [1] (setting [3]) is reported as 69 nmoles per mg of LDL protein; in data set [1] (setting [4]), 115.8 nmoles per mg of LDL protein; in data set [1] (setting [5]), 26.8 nmoles per mg of LDL protein; in data set [1] (setting [6]), 143.7 nmoles per mg of LDL protein.
